Legend:
Human recombinant MMP-2 = molecular target: T1, Human recombinant MMP-2 (Homo sapiens, UniProt P08253); test: In vitro MMP inhibition, IC50 determination (fluorogenic substrate I); assay type: biochemical
T1 construct: made in house; host or cells: MMP-2-transfected p2AHT2 cells
T1 sequence (P08253 110-660): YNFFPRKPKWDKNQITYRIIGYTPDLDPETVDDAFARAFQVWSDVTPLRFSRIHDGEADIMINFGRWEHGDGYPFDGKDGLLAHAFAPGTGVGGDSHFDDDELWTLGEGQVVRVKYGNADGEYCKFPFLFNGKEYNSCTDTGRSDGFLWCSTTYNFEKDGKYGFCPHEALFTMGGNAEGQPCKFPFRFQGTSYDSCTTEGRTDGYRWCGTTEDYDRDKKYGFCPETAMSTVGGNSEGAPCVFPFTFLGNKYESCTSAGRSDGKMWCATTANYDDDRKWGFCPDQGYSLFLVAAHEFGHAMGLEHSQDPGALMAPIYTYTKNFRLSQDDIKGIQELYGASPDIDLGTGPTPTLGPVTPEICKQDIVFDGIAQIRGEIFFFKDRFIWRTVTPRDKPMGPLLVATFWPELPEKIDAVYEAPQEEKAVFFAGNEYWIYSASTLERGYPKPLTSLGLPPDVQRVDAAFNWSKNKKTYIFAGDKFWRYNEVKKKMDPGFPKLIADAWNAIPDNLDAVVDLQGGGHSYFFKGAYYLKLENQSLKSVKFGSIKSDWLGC
Outline: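 APMA- or trypsin-activated recombinant MMP-2 was incubated at room temperature with serial inhibitor dilutions in Tris buffer pH 7.5 (100 mM NaCl, 10 mM CaCl2, 0.05% Brij), with DMSO from 1% stocks, and 4 μM substrate I. Cleavage was read by fluorescence at 328/415 nm; IC50 was taken from the loss of fluorescence versus inhibitor concentration.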

Human recombinant MMP-13 = molecular target: T2, Human recombinant MMP-13 (Homo sapiens, UniProt P45452); test: as above; assay type: biochemical
T2 construct: made in house; host or cells: baculovirus / insect cells
Outline: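 Fluorescence at 415 nm (excitation 328 nm) reports Gly-Leu cleavage of 4 μM quenched methoxycoumarin peptide substrate I. Human recombinant MMP-13, activated by trypsin or APMA, was incubated at room temperature with varied inhibitor concentrations in pH 7.5 Tris/NaCl/CaCl2 buffer; IC50 derived from reduced fluorescence.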

`O=C(CCCOc1ccc(S(=O)(=O)C2(C(=O)NO)CCOCC2)cc1)Nc1cccc(OC(F)(F)F)c1` [Example 181] was tested, and the IC50 (Human recombinant MMP-2; value outside parenthesis) was 13.9 nM and the IC50 (Human recombinant MMP-13; value outside parenthesis) was 0.3 nM.
With `CC(C)c1cccc(NC(=O)CCCOc2ccc(S(=O)(=O)C3(C(=O)NO)CCOCC3)cc2)c1` [Example 182] the IC50 (Human recombinant MMP-2; value outside parenthesis) was 33.1 nM and the IC50 (Human recombinant MMP-13; value outside parenthesis) was 0.5 nM.
For `COCCN1CCC(C(=O)NO)(S(=O)(=O)c2ccc(OCCCc3nc(-c4ccc(OC(F)(F)F)cc4)no3)cc2)CC1` [Example 190], the IC50 (Human recombinant MMP-2; value outside parenthesis) was 166 nM and the IC50 (Human recombinant MMP-13; value outside parenthesis) was 0.5 nM.
With `O=C(NO)C1(S(=O)(=O)c2ccc(OCCCc3ccnc(-c4ccccc4)c3)cc2)CCOCC1` [Example 197] the IC50 (Human recombinant MMP-2; value outside parenthesis) was 13.2 nM and the IC50 (Human recombinant MMP-13; value outside parenthesis) was 0.5 nM.
In the case of `O=C(CCCc1ccc(S(=O)(=O)C2(C(=O)NO)CCOCC2)cc1)c1cccc(-c2ccccc2)c1` [Example 219], the IC50 (Human recombinant MMP-2; value outside parenthesis) is reported as 60.8 nM and the IC50 (Human recombinant MMP-13; value outside parenthesis) is reported as 0.4 nM.
In the case of `O=C(CCCOc1ccc(S(=O)(=O)C2(C(=O)NO)CCOCC2)cc1)Nc1ccc(OC(F)(F)F)cc1` [Example 228], the IC50 (Human recombinant MMP-2; value outside parenthesis) is reported as 11.4 nM and the IC50 (Human recombinant MMP-13; value outside parenthesis) is reported as 0.2 nM.
Compound `Cc1cc(OC(F)(F)F)ccc1NC(=O)CCCOc1ccc(S(=O)(=O)C2(C(=O)NO)CCOCC2)cc1` [Example 229] has an IC50 (Human recombinant MMP-2; value outside parenthesis) of 12.2 nM and an IC50 (Human recombinant MMP-13; value outside parenthesis) of 1.7 nM.
For `COc1ccc(/C(C#N)=C/CCCOc2ccc(S(=O)(=O)C3(C(=O)NO)CCN(C4CC4)CC3)cc2)cc1` [Example 233], the IC50 (Human recombinant MMP-2; value outside parenthesis) was 25.5 nM and the IC50 (Human recombinant MMP-13; value outside parenthesis) was 0.1 nM.
With `CN(C(=O)CCCOc1ccc(S(=O)(=O)C2(C(=O)NO)CCOCC2)cc1)c1ccc(OC(F)(F)F)cc1` [Example 249] the IC50 (Human recombinant MMP-2; value outside parenthesis) was 226 nM and the IC50 (Human recombinant MMP-13; value outside parenthesis) was 5.09 nM.
`O=C(CCCOc1ccc(S(=O)(=O)C2(C(=O)NO)CCOCC2)cc1)Nc1ccc(OC(F)(F)F)cc1` [Example 250] was tested, and the IC50 (Human recombinant MMP-2; value outside parenthesis) was 2.5 nM and the IC50 (Human recombinant MMP-13; value outside parenthesis) was 0.3 nM.
`Cc1cc(NC(=O)CCCOc2ccc(S(=O)(=O)C3(C(=O)NO)CCOCC3)cc2)ccc1OC(C)C` [Example 290] gave an IC50 (Human recombinant MMP-2; value outside parenthesis) of 590 nM and an IC50 (Human recombinant MMP-13; value outside parenthesis) of 1.1 nM.
`O=C(NO)C1(S(=O)(=O)c2ccc(OCCCc3cncc(Br)c3)cc2)CCOCC1` [Example 522] gave an IC50 (Human recombinant MMP-2; value outside parentheses) of 12.9 nM and an IC50 (Human recombinant MMP-13; value outside parentheses) of 0.3 nM.
`O=C(NO)C1(S(=O)(=O)c2ccc(OCCCc3cncc(-c4ccc(F)cc4)c3)cc2)CCOCC1` [Example 523] showed an IC50 (Human recombinant MMP-2; value outside parentheses) of 162 nM and an IC50 (Human recombinant MMP-13; value outside parentheses) of 0.3 nM.
`O=C(NO)C1(S(=O)(=O)c2ccc(OCCCc3cncc(-c4ccccc4)c3)cc2)CCOCC1` [Example 524] was tested, and the IC50 (Human recombinant MMP-2; value outside parentheses) was 38.3 nM and the IC50 (Human recombinant MMP-13; value outside parentheses) was 0.2 nM.
`O=C(COc1ccc(S(=O)(=O)C2(C(=O)NO)CCOCC2)cc1)c1cccc(-c2ccccc2)c1` [Example 563] gave an IC50 (Human recombinant MMP-2; value outside parentheses) of 73.5 nM and an IC50 (Human recombinant MMP-13; value outside parentheses) of 1.1 nM.
Compound `O=C(CCCOc1ccc(S(=O)(=O)C2(C(=O)NO)CCOCC2)cc1)Nc1cccc(I)c1` [Example 570] has an IC50 (Human recombinant MMP-2; value outside parentheses) of 4.8 nM and an IC50 (Human recombinant MMP-13; value outside parentheses) of 0.2 nM.
In the case of `O=C(NO)C1(S(=O)(=O)c2ccc(OCCCc3cccc(-n4ccnc4)c3)cc2)CCOCC1` [Example 574], the IC50 (Human recombinant MMP-2; value outside parentheses) is reported as 29.4 nM and the IC50 (Human recombinant MMP-13; value outside parentheses) is reported as 0.7 nM.
In the case of `O=C(NO)C1(S(=O)(=O)c2ccc(OCCCc3nc(-c4cccnc4)no3)cc2)CCOCC1` [Example 578], the IC50 (Human recombinant MMP-2; value outside parentheses) is reported as 20.5 nM and the IC50 (Human recombinant MMP-13; value outside parentheses) is reported as 2.9 nM.
For `O=C(NO)C1(S(=O)(=O)c2ccc(OCCCc3nc(-c4ccccc4)no3)cc2)CCOCC1` [Example 584], the IC50 (Human recombinant MMP-2; value outside parentheses) was 72.9 nM and the IC50 (Human recombinant MMP-13; value outside parentheses) was 3.6 nM.
`O=C(NO)C1(S(=O)(=O)c2ccc(OCCCc3cc(-c4ccc(F)cc4F)cs3)cc2)CCOCC1` [Example 587] showed an IC50 (Human recombinant MMP-2; value outside parentheses) of 81.7 nM and an IC50 (Human recombinant MMP-13; value outside parentheses) of 0.1 nM.
In the case of `CCN1CCC(C(=O)NO)(S(=O)(=O)c2ccc(OCCCSc3nc4ccccc4s3)cc2)CC1` [Example 591], the IC50 (Human recombinant MMP-2; value outside parentheses) is reported as 3.5 nM and the IC50 (Human recombinant MMP-13; value outside parentheses) is reported as 0.3 nM.
With `O=C(NO)C1(S(=O)(=O)c2ccc(OCCCc3cccc(-c4cccs4)c3)cc2)CCOCC1` [Example 595] the IC50 (Human recombinant MMP-2; value outside parentheses) was 482 nM and the IC50 (Human recombinant MMP-13; value outside parentheses) was 1 nM.
`O=C(Cc1csc2ccccc12)NCCOc1ccc(S(=O)(=O)C2(C(=O)NO)CCOCC2)cc1` [Example 596] showed an IC50 (Human recombinant MMP-2; value outside parentheses) of 10.3 nM and an IC50 (Human recombinant MMP-13; value outside parentheses) of 2.7 nM.
`O=C(NCCOc1ccc(S(=O)(=O)C2(C(=O)NO)CCOCC2)cc1)c1cc2ccccc2[nH]1` [Example 599] was tested, and the IC50 (Human recombinant MMP-2; value outside parentheses) was < 0.1 nM and the IC50 (Human recombinant MMP-13; value outside parentheses) was 0.1 nM.
`O=C(NO)C1(S(=O)(=O)c2ccc(OCCCc3cc(-c4ccc(OC(F)(F)F)cc4)cs3)cc2)CCOCC1` [Example 608] was tested, and the IC50 (Human recombinant MMP-2; value outside parentheses) was 342 nM and the IC50 (Human recombinant MMP-13; value outside parentheses) was 6.6 nM.
Compound `N#Cc1ccc(-c2cccc(CCCOc3ccc(S(=O)(=O)C4(C(=O)NO)CCOCC4)cc3)c2)cc1` [Example 624] has an IC50 (Human recombinant MMP-2; value outside parentheses) of 214 nM and an IC50 (Human recombinant MMP-13; value outside parentheses) of 0.3 nM.
Compound `O=C(NO)C1(S(=O)(=O)c2ccc(OCCCc3cccc(-c4ccc(C(F)(F)F)cc4)c3)cc2)CCOCC1` [Example 625] has an IC50 (Human recombinant MMP-2; value outside parentheses) of 3500 nM and an IC50 (Human recombinant MMP-13; value outside parentheses) of 33.6 nM.
Work on `O=C(NO)C1(S(=O)(=O)c2ccc(OCCCc3cccc(-c4ccc([N+](=O)[O-])cc4)c3)cc2)CCOCC1` [Example 626] yielded an IC50 (Human recombinant MMP-2; value outside parentheses) of 143 nM and an IC50 (Human recombinant MMP-13; value outside parentheses) of 0.4 nM.
With `O=C(NO)C1(S(=O)(=O)c2ccc(OCCCc3cccc(-c4ccc5c(c4)OCCO5)c3)cc2)CCOCC1` [Example 627] the IC50 (Human recombinant MMP-2; value outside parentheses) was 2070 nM and the IC50 (Human recombinant MMP-13; value outside parentheses) was 14.9 nM.
For `O=C(NO)C1(S(=O)(=O)c2ccc(OCCCc3cccc(-c4ccc5c(c4)OCO5)c3)cc2)CCOCC1` [Example 628], the IC50 (Human recombinant MMP-2; value outside parentheses) was 1700 nM and the IC50 (Human recombinant MMP-13; value outside parentheses) was 3.3 nM.
In the case of `O=C(NO)C1(S(=O)(=O)c2ccc(OCCCc3cccc(-c4ccc5ccccc5c4)c3)cc2)CCOCC1` [Example 629], the IC50 (Human recombinant MMP-2; value outside parentheses) is reported as 537 nM and the IC50 (Human recombinant MMP-13; value outside parentheses) is reported as 78.6 nM.
For `O=C(NO)C1(S(=O)(=O)c2ccc(OCCCc3cccc(-c4ccc(F)cc4F)c3)cc2)CCOCC1` [Example 630], the IC50 (Human recombinant MMP-2; value outside parentheses) was 1170 nM and the IC50 (Human recombinant MMP-13; value outside parentheses) was 0.4 nM.
`O=C(NO)C1(S(=O)(=O)c2ccc(OCCCc3cccc(-c4csc5ccccc45)c3)cc2)CCOCC1` [Example 631] was tested, and the IC50 (Human recombinant MMP-2; value outside parentheses) was 2140 nM and the IC50 (Human recombinant MMP-13; value outside parentheses) was 118 nM.
For `O=C(NO)C1(S(=O)(=O)c2ccc(OCCCc3cccc(-c4ccsc4)c3)cc2)CCOCC1` [Example 632], the IC50 (Human recombinant MMP-2; value outside parentheses) was 91 nM and the IC50 (Human recombinant MMP-13; value outside parentheses) was 1.6 nM.
`O=C(NO)C1(S(=O)(=O)c2ccc(OCCCc3cccc(-c4cc5ccccc5s4)c3)cc2)CCOCC1` [Example 633] was tested, and the IC50 (Human recombinant MMP-2; value outside parentheses) was 2830 nM and the IC50 (Human recombinant MMP-13; value outside parentheses) was 117 nM.
Work on `O=C(NO)C1(S(=O)(=O)c2ccc(OCCCc3cccc(-c4coc5ccccc45)c3)cc2)CCOCC1` [Example 634] yielded an IC50 (Human recombinant MMP-2; value outside parentheses) of 486 nM and an IC50 (Human recombinant MMP-13; value outside parentheses) of 16.3 nM.
`C=Cc1ccc(-c2cccc(CCCOc3ccc(S(=O)(=O)C4(C(=O)NO)CCOCC4)cc3)c2)cc1` [Example 635] was tested, and the IC50 (Human recombinant MMP-2; value outside parentheses) was 2310 nM and the IC50 (Human recombinant MMP-13; value outside parentheses) was 20 nM.
`O=C(NO)C1(S(=O)(=O)c2ccc(OCCCc3cccc(-c4ccccc4O)c3)cc2)CCOCC1` [Example 636] was tested, and the IC50 (Human recombinant MMP-2; value outside parentheses) was 195 nM and the IC50 (Human recombinant MMP-13; value outside parentheses) was 3.2 nM.
`O=C(NO)C1(S(=O)(=O)c2ccc(OCCCc3cccc(-c4ccoc4)c3)cc2)CCOCC1` [Example 637] was tested, and the IC50 (Human recombinant MMP-2; value outside parentheses) was 138 nM and the IC50 (Human recombinant MMP-13; value outside parentheses) was 1.8 nM.
In the case of `O=C(NO)C1(S(=O)(=O)c2ccc(OCCCc3cccc(-c4cccc5ccccc45)c3)cc2)CCOCC1` [Example 638], the IC50 (Human recombinant MMP-2; value outside parentheses) is reported as 4400 nM and the IC50 (Human recombinant MMP-13; value outside parentheses) is reported as 400 nM.
`Cc1ccc(-c2cccc(CCCOc3ccc(S(=O)(=O)C4(C(=O)NO)CCOCC4)cc3)c2)s1` [Example 639] showed an IC50 (Human recombinant MMP-2; value outside parentheses) of 247 nM and an IC50 (Human recombinant MMP-13; value outside parentheses) of 4.3 nM.

From patent publication US20040024024A1, “Aromatic sulfone hydroxamates and their use as protease inhibitors” (priority 2001, published 2004)
